System: LTD4 evoked ileal contractions
Experiment: LTD4 antagonism in isolated guinea pig ileum (inhibition of LTD4 evoked ileal contractions)
Assay type: cell-based, guinea pig (male, Hartley)
Conditions: Cavia porcellus; for IC50: 50% inhibition of LTD4 responses, interpolated by linear regression from 2-4 concentrations; for inhibition at 0.3 µM: compound concentration 3 × 10^-7 M; for inhibition at 0.3 µM / inhibition at 0.03 µM / inhibition at 0.01 µM / inhibition at 0.1 µM / inhibition at 0.003 µM: read-out: Percent inhibition of LTD4 evoked ileal contractions; for inhibition at 0.03 µM: compound concentration 3 × 10^-8 M; for inhibition at 0.01 µM: compound concentration 1 × 10^-8 M; for inhibition at 0.1 µM: compound concentration 1 × 10^-7 M; for inhibition at 0.003 µM: compound concentration 3 × 10^-9 M
Protocol: Male, Hartley guinea pigs weighing 200-450 grams were killed by decapitation. A section of terminal ileum was removed, the lumen cleaned, and the tissue divided into 2.5 cm. segments. The ilea were mounted in 10 ml. tissue baths containing Krebs-bicarbonate solution of the following composition in mmoles/liter: KCl, 4.6; CaCl2 ·H2 O, 1.2; KH2 PO4, 1.2; MgSO4 ·7H2 O, 1.2; NaCl, 118.2; NaHCO3, 24.8; and dextrose, 10.0. The bath fluid was maintained at 37° C. and aerated with 95 percent oxygen and 5 percent CO2. In addition, the buffer contained 1×10^-6 M atropine to reduce ileal spontaneous activity. Isometric measurements were made with a Grass FTO3C force-displacement transducer and recorded on a Gras polygraph as change in grams of force. A passive force of 0.5 g. was applied to the tissues. After an appropriate equilibration period, single submaximal control responses to pure LTD4 were obtained. Following a five minute exposure of the ileum to an experimental drug, the control concentration of LTD4 was added to the tissue bath. The response of the ileum to LTD4 in the presence of the drug was compared to the response in the absence of the drug. Various degrees of LTD4 antagonism were obtained using 2-4 different concentrations of an experimental compound on a single ileum.

| Compound | IC50 [nM] | inhibition at 0.3 µM [%] | inhibition at 0.03 µM [%] | inhibition at 0.01 µM [%] | inhibition at 0.1 µM [%] | inhibition at 0.003 µM [%] |
| --- | --- | --- | --- | --- | --- | --- |
| CCCc1c(COc2ccc(C(=O)CCC(=O)O)cc2)ccc(C(C)=O)c1O [Example 1, 4-[(4-Acetyl-3-hydroxy-2-propylphenyl)methoxy]-γ-oxobenzenebutanoic acid] | 33.1 | 97 | 48 |  |  |  |
| CCCc1c(COc2ccc(C(=O)CCCc3nnn[nH]3)c(O)c2)ccc(C(C)=O)c1O [Example 13, 1-{4-[(4-Acetyl-3-hydroxy-2-propylphenyl)methoxy]-2-hydroxyphenyl}-4-(1H-tetrazol-5-yl)-1-butanone] | 24.5 | 82 |  | 28 |  |  |
| CCCc1c(COc2ccc3c(c2)CCC(CC(=O)O)C3=O)ccc(C(C)=O)c1O (stereo not shown) [Example 28, 6-[(4-Acetyl-3-hydroxy-2-propylphenyl)methoxy]-1,2,3,4-tetrahydro-1-oxo-2-naphthaleneacetic acid] | 10.2 |  |  |  |  |  |
| CCCc1c(COc2ccc(C(=O)C(C)(C)Cc3nnn[nH]3)cc2)ccc(C(C)=O)c1O [Example 12, 1-{4-[(4-Acetyl-3-hydroxy-2-propylphenyl)methoxy]phenyl}-2,2-dimethyl-3-(1H-tetrazol-5-yl)-1-propanone] | 51.3 | 60 | 41 |  |  |  |
| CCc1c(COc2ccc(C(=O)CC(C)(C)CC(=O)O)cc2)ccc(C(C)=O)c1O [Example 23, 4-[(4-Acetyl-2-ethyl-3-hydroxyphenyl)methoxy]-β,β-dimethyl-δ-oxobenzenepentanoic acid] | 21.4 |  | 66 | 25 | 88 |  |
| CCCc1c(COc2ccc(C(=O)CCCc3nnn[nH]3)cc2)ccc(C(C)=O)c1O [Example 10, 1-{4-[(4-Acetyl-3-hydroxy-2-propylphenyl)methoxy]-phenyl}-4-(1H-tetrazol-5-yl)-1-butanone] | 4.79 | 94 | 76 | 57 | 95 | 46 |
| CCCc1c(COc2ccc(C(=O)Cc3nnn[nH]3)cc2)ccc(C(C)=O)c1O [Example 8, 1-{4-[(4-acetyl-3-hydroxy-2-propylphenyl)methoxy]phenyl}-2-(1H-tetrazol-5-yl)ethanone] | 21.9 |  | 54 | 40 |  |  |
| CCCc1c(COc2ccc(C(=O)CCCCc3nnn[nH]3)cc2)ccc(C(C)=O)c1O [Example 11, 1-{4-[(4-Acetyl-3-hydroxy-2-propylphenyl)methoxy]phenyl}-5-(1H-tetrazol-5-yl)-1-pentanone] | 24.5 |  | 51 | 43 |  |  |

More lines, in order of falling IC50, values ahead:

| IC50 [nM] | Compound | inhibition at 0.3 µM [%] | inhibition at 0.03 µM [%] | inhibition at 0.01 µM [%] | inhibition at 0.1 µM [%] | inhibition at 0.003 µM [%] |
| --- | --- | --- | --- | --- | --- | --- |
| 75.9 | CCCc1c(COc2ccc3c(c2)C(=O)C(CC(=O)O)CC3)ccc(C(C)=O)c1O (stereo not shown) [Example 29, 7-[(4-Acetyl-3-hydroxy-2-propylphenyl)methoxy]-1,2,3,4-tetrahydro-1-oxo-2-naphthaleneacetic acid] |  |  |  |  |  |
| 37.2 | CCCc1c(COc2ccc(C(=O)CCCC(=O)O)cc2)ccc(C(C)=O)c1O [Example 7, 4-[(4-Acetyl-3-hydroxy-2-propylphenyl)methoxy]-δ-oxobenzenepentanoicacid] |  |  | 17 | 68 |  |
| 32.4 | CCCc1c(COc2ccc(C(=O)CCCCCc3nnn[nH]3)cc2)ccc(C(C)=O)c1O [Example 19, 1-{4-[(4-Acetyl-3-hydroxy-2-propylphenyl)methoxy]phenyl}-6-(1H-tetrazol-5-yl)-1-hexanone] |  | 47 |  | 80 |  |
| 26.3 | CCCc1c(COc2ccc(C(=O)CCc3nnn[nH]3)cc2)ccc(C(C)=O)c1O [Example 9, 1-{4-[(4-Acetyl-3-hydroxy-2-propylphenyl)methoxy]phenyl}-3-(1H-tetrazol-5-yl)-1-propanone] | 91 | 54 | 25 | 85 |  |
| 20.4 | CCCc1c(COc2ccc(C(=O)C(C)Cc3nnn[nH]3)cc2)ccc(C(C)=O)c1O (stereo not shown) [Example 14, 1-{4-[(4-Acetyl-3-hydroxy-2-propylphenyl)methoxy]phenyl}-2-methyl-3-(1H-tetrazol-5-yl)-1-propanone] |  | 58 | 35 |  |  |
| 18.6 | CCCc1c(COc2ccc(C(=O)CC(C)(C)CC(=O)O)cc2)ccc(C(C)=O)c1O [Example 6, 4-[(4-Acetyl-3-hydroxy-2-propylphenyl)methoxy]-β,β-dimethyl-δ-oxobenzenepentanoic acid] |  |  | 41 | 78 | 16 |
| 18.2 | CCCc1c(COc2cccc(C(=O)CCCc3nnn[nH]3)c2)ccc(C(C)=O)c1O [Example 18, 1-{3-[(4-Acetyl-3-hydroxy-2-propylphenyl)methoxy]phenyl}-4-(1H-tetrazol-5-yl)-1-butanone] |  | 65 | 34 | 84 |  |
| 15.8 | CCCc1c(COc2ccc(C(=O)CCCCC(=O)O)cc2)ccc(C(C)=O)c1O [Example 5, 4-[(4-Acetyl-3-hydroxy-2-propylphenyl)methoxy]-ε-oxobenzenehexanoic acid] |  | 63 | 40 | 86 |  |
| 13.5 | CCCc1c(COc2ccc(C(=O)CC3(CC(=O)O)CCCC3)cc2)ccc(C(C)=O)c1O [Example 24, 1-(2-{4-[(4-Acetyl-3-hydroxy-2-propylphenyl)methoxy]phenyl}-2-oxoethyl)cyclopentaneacetic acid] |  | 74 | 35 | 85 |  |
| 4.79 | CCc1c(COc2ccc(C(=O)CC(C)(C)Cc3nnn[nH]3)cc2)ccc(C(C)=O)c1O [Example 16, 1-{4-[(4-Acetyl-3-hydroxy-2-ethylphenyl)methoxy]phenyl}-3,3-dimethyl-4-(1H-tetrazol-5-yl)-1-butanone] |  |  | 63 | 95 | 41 |
| 3.24 | CCCc1c(COc2ccc(C(=O)CC(C)(C)Cc3nnn[nH]3)cc2)ccc(C(C)=O)c1O [Example 15, 1-{4-[(4-Acetyl-3-hydroxy-2-propylphenyl)methoxy]phenyl}-3,3-dimethyl-4-(1H-tetrazol-5-yl)-1-butanone] |  | 91 |  |  | 50 |
